Source: patent publication US9700637B2, “Reaction-based fluorescent probes for detecting zinc” (Massachusetts Institute of Technology, priority 2013, dated 2017)

Legend:
[1] = test system: porcine liver esterase; assay: Deacetylation by porcine liver esterase (UV-vis absorbance); type: in vitro ADME; details: 1.25 units porcine liver esterase, 37° C., pH 7
Method: FIG. 23 depicts kinetic traces for the deacetylation of DA-ZP1-TPP. The half-life for deacetylation of a 2.75 μM solution of DA-ZP1-TPP, at 37° C. in 50 mM PIPES buffer (pH 7) and 100 mM KCl, was measured in the presence of 125 μM ZnCl2 (+Zn), 250 μM EDTA (−Zn), or 1.25 units of porcine liver esterase (Esterase). The change in absorbance at 520 nm (EDTA and esterase) or 510 nm (ZnCl2) was used to monitor the reaction.
(§1) DA-ZP1-TPP has a zinc-induced fluorescence response and is relatively stable to uncatalyzed hydrolysis and esterase activity. […] Other late 3d-block transition metal ions, such as Co(II) and Cu(II), can coordinate to DA-ZP1-TPP but are generally not available in appreciable chelatable quantities within the cell. In addition to monitoring selectivity in the fluorescence response, we used UV-vis spectroscopy to investigate the rate and zinc-specificity of metal-mediated ester hydrolysis. DA-ZP1-TPP deacetylation results in opening of the lactone ring and restoration of conjugation across the xanthene ring. By monitoring the absorbance of the xanthene it system, we could interrogate deacetylation kinetics in a manner that is independent of the fluorescence response. […] To determine whether ester hydrolysis depends on the metal-binding core of DA-ZP1-TPP, we measured the deacetylation kinetics of fluorescein diacetate (DA-FL) under analogous conditions. […]

[2] = test system: PC-3 cells; assay: Mitochondrial zinc uptake imaging in prostate cells; type: cell-based, human
Method: FIG. 25 depicts decreased mitochondrial zinc uptake in cancerous cell lines. RWPE-1, RWPE-2, and PC-3 prostate cell lines were incubated for 24 h in medium supplemented with (+) and without (−) 50 μM ZnCl2. RWPE-1 is the only cell line that has a statistically significant (p<0.001) increase in mitochondrial zinc uptake when incubated in zinc-enriched media.
With a new mitochondrial-targeting sensor in hand, we used DA-ZP1-TPP to investigate the ability of prostate cell lines to accumulate zinc within their mitochondria. RWPE-1 and RWPE-2 are a pair of genetically similar cell lines that retain normal epithelial cell morphology, express cytokeratin markers for prostate epithelial cells, and are hormone sensitive. […] To explore the ability of RWPE-1 and -2 cells to sequester zinc in mitochondria, we measured the fluorescence intensity of DA-ZP1-TPP in both lines after the cells were bathed in normal or zinc-enriched (50 μM ZnCl2) keratinocyte serum-free medium (KSFM) for 24 h prior to imaging. RWPE-1 cells bathed in zinc-enriched medium have a fluorescence signal intensity that is ˜2.3-fold higher than cells bathed in normal medium (FIG. 25). […] Importantly, in both cell lines the observed fluorescence signals from DA-ZP1-TPP are sensitive to ZnPT and TPEN and have good correlation with MitoTracker Red, the Pearson's r values being 0.68±0.09 and 0.59±0.1 for RWPE-1 and -2, respectively. […]

[3] = Metal ion selectivity of fluorescence response; type: physicochemical; details: 50 mM PIPES pH 7, 100 mM KCl, 25° C.
Method: FIG. 22 depicts metal ion selectivity of DA-ZP1-TPP. Average normalized fluorescence intensities for a 1.1 μM solution of DA-ZP1-TPP in 50 mM PIPES buffer (pH 7) with 100 mM KCl at 25° C., after addition of 50 μM-2 mM concentrations of various metal ions (white bars), followed by addition of 50 μM ZnCl2 (black bars). The grey column represents the average sensor intensity after addition of 100 μM EDTA. Data were normalized to initial measured emission intensity at λex=495 nm.
as §1, with “DA-ZP1-TPP deacetylation results in opening of the lactone ring and restoration of conjugation across the xanthene ring.” left out

- t1/2-Esterase of deacetylation [1]: 2.9 h
SMILES: CC(=O)Oc1c(Cl)cc2c(c1CN(Cc1ccccn1)Cc1ccccn1)Oc1c(cc(Cl)c(OC(C)=O)c1CN(Cc1ccccn1)Cc1ccccn1)C21OC(=O)c2ccc(C(=O)NCC[P+](c3ccccc3)(c3ccccc3)c3ccccc3)cc21 [DA-ZP1-TPP]
- increase in sensor fluorescence intensity, zinc-enriched medium ([2]; PC-3, 50 μM ZnCl2, RMPI 1640 with 10% FBS, 24 h): no statistically significant increase
- increase in fluorescence intensity, zinc-supplemented serum-free medium ([2]; PC-3, serum-free RMPI 1640, 15 μM ZnCl2, 3 h): no statistically significant increase
- metal ion selectivity of fluorescence response [3]: responds to Zn(II) over biologically relevant cations such as Ca(II) and Mg(II)
